In US9321785B2, “Methods for the treatment or prophylaxis of thrombosis or embolism” (IPCA Laboratories Limited, priority 2010, dated 2016):
Where two headings read alike, the source gives them in different places.

What was measured:
[1] = tested on: ADP induced platelet aggregation (platelet-rich plasma); assay: Measurement of platelet aggregation with ADP, ex vivo after oral administration; assay type: in vivo, rat; conditions: 2 h before sampling, ADP 2.5 μM
Description: The platelet aggregation inhibiting activities and the antithrombotic activities of the compounds were studied in the rat by standard methods. The activity on the aggregation of plates induced by ADP or collagen was determined ex-vivo. […] The aggregating solutions used were: a 500 μM aqueous solution of ADP (final concentration 2.5 μM). The aggregation of the platelets was monitored as described by Born (Nature 194, p. 927 […]), which is incorporated herein by reference, using a Coultronics® aggregometer at a temperature of 37° C. and agitation of 900 rpm. For aggregation with ADP, the aggregometer generates a curve representing a platelet aggregation as measured by a change in optical density. The height of this curve is defined as the height of aggregation. […] The controls are without drug.

[2] = tested on: venous thrombus in vena cava; assay: Venous thrombosis on a screw thread (antithrombotic activity); assay type: in vivo, rat; conditions: for % inhibition / Weight of thrombus: thrombus after 5 h
Text: The antithrombotic activity has also been studied in the test of venous thrombosis on a screw thread described by Kumada T. et al. in Thromb. Res 18 p. 189 (1980). Female rats of the same type as those previously described, in groups of 10 animals, were anesthetized with diethyl ether and their vena cava was isolated after abdominal incision. […] The thrombi formed rapidly and five hours later, under pentobarbital anesthesia, the abdomen is reopened and ligatures are placed above and below the screw thread which is withdrawn after longitudinal incision of the vein and the isolated thrombus is weighed. […] The control is without drug.

[3] = Activity of clopidogrel metabolite; conditions: metabolite in the clopidogrel pathway
Text: Thus, the influence that the patient's ability to metabolize has on efficacy is reduced.

[4] = tested on: ADP induced platelet aggregation; conditions: cited from earlier work; for Time until 50% inhibition of ADP induced platelet aggregation is reached: 5 μM ADP ex vivo, LTA
[5] = cited from earlier work
[6] = rat; cited from earlier work
[7] = tested on: recurrent ischemic events / major bleeding events; conditions: cited from earlier work
[8] = combined with Aspirin therapy, patients with ACS
[9] = patients at high risk of vascular events

Question: For COC(=O)[C@H](c1ccccc1Cl)N1CCc2sccc2C1 [Clopidogrel bisulphate], which inhibition at 12.5 mg/kg ([1]; Rattus norvegicus, Platelet, oral dose 12.5 mg/kg (base 9.813 mg/kg)) is on record?
Answer: The inhibition at 12.5 mg/kg was 82%.

Question: What about the inhibition at 25 mg/kg ([1]; Rattus norvegicus, Platelet, oral dose 25 mg/kg (base 19.225 mg/kg)) of the same compound?
Answer: The inhibition at 25 mg/kg was 89%.

Question: And the “% aggregation (height)” value ([1]; oral dose 12.5 mg/kg (base 9.813 mg/kg), control 103 ± 3)?
Answer: Its value is 19 ± 4%.

Question: What about the “% aggregation (height)” value ([1]; oral dose 25 mg/kg (base 19.225 mg/kg), control 103 ± 3) of the same compound?
Answer: The value was 11 ± 1%.

Question: What about the “% inhibition” value ([2]; dose 10 mg/kg (base 7.69 mg/kg)) of the same compound?
Answer: Its value is 67%.

Question: What about the Weight of thrombus ([2]; dose 10 mg/kg (base 7.69 mg/kg), control 3.9 ± 0.3) of the same compound?
Answer: Its Weight of thrombus is 1.26 ± 0.19 mg.

Question: What about the “% inhibition” value ([2]; dose 20 mg/kg (base 15.38 mg/kg)) of the same compound?
Answer: Its value is 69%.

Question: What about the Weight of thrombus ([2]; dose 20 mg/kg (base 15.38 mg/kg), control 3.9 ± 0.3) of the same compound?
Answer: Its Weight of thrombus is 1.20 ± 0.13 mg.

Question: For O=C(O)[C@H](c1ccccc1Cl)N1CCc2sccc2C1 [Formula IV], which “Activity of the metabolite” value [3] is on record?
Answer: The value was “inactive”.

Question: With COC(=O)[C@H](c1ccccc1Cl)N1CCC2SC(=O)C=C2C1 (stereo partly drawn) [Thiolactone, Methyl(S)-2(2-chlorophenyl)-2-(2,4,5,6,7,7a-hexahydrothieno[3,2-c]-5-pyridin-2-one)acetate] as the compound, how does the inhibition at 2.5 mg/kg ([1]; Rattus norvegicus, Platelet, oral dose 2.5 mg/kg (base 2.5 mg/kg)) read?
Answer: The inhibition at 2.5 mg/kg was 95%.

Question: And the “% aggregation (height)” value ([1]; oral dose 2.5 mg/kg (base 2.5 mg/kg), control 94 ± 1)?
Answer: Its value is 4 ± 2%.

Question: What about the “Antithrombotic activity compared with clopidogrel” value ([2]; Table 2) of the same compound?
Answer: Its value is “superior to clopidogrel”.

Question: What about the “% inhibition” value ([2]; dose 12.5 mg/kg (base 12.5 mg/kg)) of the same compound?
Answer: The value was 76%.

Question: What about the Weight of thrombus ([2]; dose 12.5 mg/kg (base 12.5 mg/kg), control 4.18 ± 0.31) of the same compound?
Answer: The Weight of thrombus was 1.18 ± 0.18 mg.

Question: With COC(=O)[C@H](c1ccccc1Cl)N1CCc2sccc2C1 [Clopidogrel, (+)-(S)-methyl 2-(2-chlorophenyl)-2-(6,7-dihydrothieno[3,2-c]pyridin-5(4H)-yl)acetate] as the compound, how does the “Time until 50% inhibition of ADP induced platelet aggregation is reached” value ([4]; dose 600 mg) read?
Answer: Its value is 2 h.

Question: What about the “Inhibition of ADP induced platelet aggregation” value ([4]; dose 900 mg, 5 μM ADP) of the same compound?
Answer: The value was 60%.

Question: And the “Inhibition of platelet aggregation” value ([4]; dose 900 mg, 20 μM ADP ex vivo)?
Answer: Its value is “less than 50%”.

Question: What about the “Time until 50% inhibition of ADP induced platelet aggregation is reached” value ([4]; loading dose 300 mg) of the same compound?
Answer: Its value is 4 to 6 h.

Question: And the “Fraction converted to clopidogrel acid in vivo” value [5]?
Answer: The value was 90%.

Question: What about the Lethal dose [6] of the same compound?
Answer: The Lethal dose was “about 5000 mg per kg”.

Question: What about the “Absolute risk reduction (ARR), recurrent ischemic events” value [7, 8] of the same compound?
Answer: The value was “about 2.1%”.

Question: What about the “Further reduction of the risk of recurrent ischemic events” value [7, 8] of the same compound?
Answer: Its value is 20%.

Question: With CC(=O)Oc1ccccc1C(=O)O [Aspirin] as the compound, how does the “Absolute risk increase (ARI), major bleeding events” value [7, 9] read?
Answer: The value was “about 0.5%”.

Question: What about the “Absolute risk reduction (ARR), recurrent ischemic events” value [7, 9] of the same compound?
Answer: The value was “about 2%”.

Question: What about the “Increase in the odds of major bleeding events” value [7, 9] of the same compound?
Answer: The value was “about 60%”.

Question: And the “Reduction of the risk of recurrent ischemic events” value [7, 9]?
Answer: Its value is 22%.
